#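 These data come from cells grown in 96-well plates and exposed to compound for 48 hours at five concentrations. GI50 marks 50% less growth.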 Activity calls are given as the source filed them. No stated cut-off is given here; in the data, active = GI50 up to about 1.1 µM and inactive = higher.
# What was measured:
# Assay in all cases: DTP human tumour cell line panel, 48 h
# MDA-MB-435 = system: MDA-MB-435
# OVCAR-5 = system: OVCAR-5
# NCI-H522 = system: NCI-H522
# SN12C = system: SN12C
# CCRF-CEM = system: CCRF-CEM
# BT-549 = system: BT-549
# HT-29 = system: HT-29
# SR = system: SR
# SNB-19 = system: SNB-19
# SF-295 = system: SF-295
# NCI-H460 = system: NCI-H460
# NCI-H23 = system: NCI-H23
# U-251 = system: U-251
# M14 = system: M14
# RXF 393 = system: RXF 393
# ACHN = system: ACHN
# A498 = system: A498
# SF-539 = system: SF-539
# T47D = system: T47D
# SK-OV-3 = system: SK-OV-3
Structure (SMILES),GI50 (MDA-MB-435),GI50 (OVCAR-5),GI50 (NCI-H522),GI50 (SN12C),GI50 (CCRF-CEM),GI50 (BT-549),GI50 (HT-29),GI50 (SR),GI50 (SNB-19),GI50 (SF-295),GI50 (NCI-H460),GI50 (NCI-H23),GI50 (U-251),GI50 (M14),GI50 (RXF 393),GI50 (ACHN),GI50 (A498),GI50 (SF-539),GI50 (T47D),GI50 (SK-OV-3)
CC1(C)Oc2ccc3ccc(=O)oc3c2C(O)C1O (configuration not stated),33.7 µM (inactive),> 100 µM (inactive),33.7 µM (inactive),> 100 µM (inactive),31.7 µM (inactive),22.5 µM (inactive),28.1 µM (inactive),59.4 µM (inactive),> 100 µM (inactive),36.1 µM (inactive),40 µM (inactive),44.2 µM (inactive),38.3 µM (inactive),36.6 µM (inactive),67.1 µM (inactive),44.6 µM (inactive),> 100 µM (inactive),22.9 µM (inactive),35.3 µM (inactive),
O=[N+]([O-])c1ccc(N2N=C(c3ccc4ccccc4c3O)CC2c2ccc(Cl)cc2)c([N+](=O)[O-])c1 (configuration not stated),16.9 µM (inactive),> 100 µM (inactive),22.1 µM (inactive),33.2 µM (inactive),14.2 µM (inactive),> 100 µM (inactive),33 µM (inactive),18.2 µM (inactive),,34.7 µM (inactive),25.4 µM (inactive),> 100 µM (inactive),25.9 µM (inactive),50.4 µM (inactive),28.6 µM (inactive),37.2 µM (inactive),27.2 µM (inactive),32.3 µM (inactive),51.4 µM (inactive),80.2 µM (inactive)
O=C(NNC(=O)c1ccccc1Cl)c1ccccc1O,67 µM (inactive),> 100 µM (inactive),12.2 µM (inactive),> 100 µM (inactive),44.1 µM (inactive),> 100 µM (inactive),23.8 µM (inactive),29.9 µM (inactive),> 100 µM (inactive),32.7 µM (inactive),23.6 µM (inactive),,> 100 µM (inactive),39.7 µM (inactive),> 100 µM (inactive),,> 100 µM (inactive),> 100 µM (inactive),> 100 µM (inactive),18.2 µM (inactive)
Cc1cc(S(=O)(=O)Nc2nc(N)n(-c3cnc4ccccc4n3)n2)c(S)cc1Cl,> 100 µM (inactive),> 100 µM (inactive),> 100 µM (inactive),> 100 µM (inactive),37.1 µM (inactive),16.6 µM (inactive),> 100 µM (inactive),> 10 µM (inactive),39.1 µM (inactive),,36.6 µM (inactive),,41.9 µM (inactive),> 100 µM (inactive),99.1 µM (inactive),> 100 µM (inactive),62.2 µM (inactive),> 100 µM (inactive),> 100 µM (inactive),85.7 µM (inactive)
N/C(=N\OC(=O)NC(Cl)=C(Cl)Cl)c1cc(C(F)(F)F)cc(C(F)(F)F)c1,19.4 µM (inactive),21.1 µM (inactive),,24.3 µM (inactive),4.65 µM (inactive),21.8 µM (inactive),16.9 µM (inactive),10.7 µM (inactive),18.7 µM (inactive),17.5 µM (inactive),18.8 µM (inactive),34.9 µM (inactive),16 µM (inactive),25.2 µM (inactive),,14 µM (inactive),17.5 µM (inactive),16 µM (inactive),6.21 µM (inactive),28.4 µM (inactive)
N#Cc1ncn(CCO)c1N,> 100 µM (inactive),> 100 µM (inactive),> 100 µM (inactive),> 100 µM (inactive),> 100 µM (inactive),> 100 µM (inactive),> 100 µM (inactive),> 100 µM (inactive),> 100 µM (inactive),> 100 µM (inactive),> 100 µM (inactive),> 100 µM (inactive),> 100 µM (inactive),> 100 µM (inactive),,> 100 µM (inactive),> 100 µM (inactive),> 100 µM (inactive),> 100 µM (inactive),> 100 µM (inactive)
NC(C(F)(F)F)(C(F)(F)F)P(=O)(c1ccccc1)c1ccccc1,> 100 µM (inactive),> 100 µM (inactive),,> 100 µM (inactive),> 100 µM (inactive),> 100 µM (inactive),> 100 µM (inactive),> 100 µM (inactive),> 100 µM (inactive),> 100 µM (inactive),> 100 µM (inactive),> 100 µM (inactive),> 100 µM (inactive),> 100 µM (inactive),> 100 µM (inactive),> 100 µM (inactive),,> 100 µM (inactive),> 100 µM (inactive),> 100 µM (inactive)
CC1(C)[C@H]2CC[C@]1(C)[C@H](OC(=O)NNC(=O)O[C@@H]1C[C@@H]3CC[C@@]1(C)C3(C)C)C2,21.2 µM (inactive),17.5 µM (inactive),13 µM (inactive),12.2 µM (inactive),20.3 µM (inactive),19.7 µM (inactive),5.7 µM (inactive),,19.5 µM (inactive),13.8 µM (inactive),13.7 µM (inactive),14.9 µM (inactive),16 µM (inactive),15.5 µM (inactive),10.6 µM (inactive),18.7 µM (inactive),16.3 µM (inactive),14.4 µM (inactive),7.1 µM (inactive),14.3 µM (inactive)
N#CC1(c2ccccc2)CCN(C2(c3ccccc3)CCCCC2)CC1,> 100 µM (inactive),> 100 µM (inactive),,> 100 µM (inactive),> 100 µM (inactive),> 100 µM (inactive),> 100 µM (inactive),> 100 µM (inactive),> 100 µM (inactive),> 100 µM (inactive),,> 100 µM (inactive),> 100 µM (inactive),> 100 µM (inactive),> 100 µM (inactive),> 100 µM (inactive),,,> 100 µM (inactive),> 100 µM (inactive)
COc1ccc([S+]([O-])Cc2cc(OC)c(OC)c(OC)c2)cc1 (configuration not stated),5.96 µM (inactive),42.9 µM (inactive),51.3 µM (inactive),54.8 µM (inactive),41.3 µM (inactive),46.7 µM (inactive),31.3 µM (inactive),37.8 µM (inactive),69.7 µM (inactive),47.3 µM (inactive),33.2 µM (inactive),76.2 µM (inactive),60.3 µM (inactive),35.2 µM (inactive),29.2 µM (inactive),> 100 µM (inactive),,56.5 µM (inactive),> 100 µM (inactive),> 100 µM (inactive)
Nc1nc(O)nc2snnc12,4.59 µM (inactive),> 100 µM (inactive),> 100 µM (inactive),> 27.4 µM (inactive),14.9 µM (inactive),3.54 µM (inactive),> 100 µM (inactive),9.46 µM (inactive),> 87.9 µM (inactive),33.2 µM (inactive),> 100 µM (inactive),> 100 µM (inactive),25.1 µM (inactive),7.35 µM (inactive),4.66 µM (inactive),> 100 µM (inactive),,15.9 µM (inactive),4.57 µM (inactive),50.2 µM (inactive)
COc1cc2c(cc1OC)C(=O)/C(=C/c1ccc(Cl)cc1)CC2,> 10 µM (inactive),> 10 µM (inactive),,> 10 µM (inactive),> 10 µM (inactive),> 10 µM (inactive),> 10 µM (inactive),> 10 µM (inactive),> 10 µM (inactive),> 10 µM (inactive),> 10 µM (inactive),> 10 µM (inactive),> 10 µM (inactive),> 10 µM (inactive),> 10 µM (inactive),> 10 µM (inactive),> 10 µM (inactive),> 10 µM (inactive),> 10 µM (inactive),> 10 µM (inactive)
O=C1CC(Nc2ccccc2)c2c(Cl)sc(Cl)c21 (configuration not stated),1.52 µM (inactive),2.34 µM (inactive),0.139 µM (active),1.51 µM (inactive),0.127 µM (active),2.22 µM (inactive),1.7 µM (inactive),0.52 µM (active),5.19 µM (inactive),5.11 µM (inactive),6.37 µM (inactive),1.91 µM (inactive),1.68 µM (inactive),1.66 µM (inactive),,1.18 µM (inactive),2.5 µM (inactive),0.527 µM (active),1.48 µM (inactive),13.4 µM (inactive)
O=C(COc1ccc(OCC(=O)N2C(=O)CN(c3ccccc3)C2=S)cc1)N1C(=O)CN(c2ccccc2)C1=S,> 55.3 µM (inactive),> 50.9 µM (inactive),> 61.2 µM (inactive),> 59.2 µM (inactive),,> 61.4 µM (inactive),> 56.9 µM (inactive),> 25 µM (inactive),> 48.4 µM (inactive),> 53 µM (inactive),> 57.7 µM (inactive),> 56.9 µM (inactive),> 51.6 µM (inactive),> 57.9 µM (inactive),55.8 µM (inactive),> 53.3 µM (inactive),> 56.5 µM (inactive),> 100 µM (inactive),> 58.3 µM (inactive),> 54.3 µM (inactive)
Cc1c2cccc-2c(N(C)C)cc2c1[nH]c1ccccc12,8.36 µM (inactive),3.23 µM (inactive),,6.67 µM (inactive),3.83 µM (inactive),2.6 µM (inactive),4.81 µM (inactive),1.58 µM (inactive),9.27 µM (inactive),10.4 µM (inactive),9.16 µM (inactive),8.93 µM (inactive),1.93 µM (inactive),5.32 µM (inactive),,3.19 µM (inactive),21 µM (inactive),2.11 µM (inactive),1.86 µM (inactive),2.67 µM (inactive)
